Measurements taken from patent publication US20130303565A1 (priority 2012, published 2013).

Columns and labels:
[1] = system: TF1 (Human erythro leukemia cells); test: Cell proliferation assay (Trypan Blue dye exclusion), TF1; type: cell-based; conditions: tritoqualine 10^-5-10^-8 M, 72 hr, with or without G-CSF 50 ng/mL
Protocol: (§1) U937 (monocytic leukemia cells), and HL-60 (human promyelocytic cells) and TF1 (Human erythro leukemia cells) were obtained from cell bank of Necker. HL-60, U937 and TF1 were maintained. in RPMI-1640 medium supplemented with 10% FCS, 100 U/mL penicillin, and 100 μg/mL streptomycin. These cells were cultured in an incubator containing humidified air with 5% CO2 at […].
(§2) HL60, U937, TF1 cells (5×10^5 cells/mL) in conditioning medium were cultured with various concentrations of tritoqualine (10^−5-10^−8 M) in the presence or absence of G-CSF (50 ng/mL) in 6-well flat-bottomed plates for 72 hr. Cell proliferation assay and viability examination were performed using the Trypan Blue dye exclusion method. All experiments were performed in triplicate.
(§3) The maximum effect is on TF1 cells line. The inhibition is about 85%. The effect on HL60 is only 60% of inhibition. This effect dose is equivalent to the dose of 200 mg to 2000 mg of tritoqualine in human. This effect on leukemia clone is very surprising because tritoqualine is a molecule with low toxicity.

[2] = system: HL-60 (human promyelocytic cells); test: Cell proliferation assay (Trypan Blue dye exclusion), HL60; type: cell-based; conditions: tritoqualine 10^-5-10^-8 M, 72 hr, with or without G-CSF 50 ng/mL
Protocol: as §1, §2, §3

[3] = system: U937 (monocytic leukemia cells); test: Cell proliferation assay (Trypan Blue dye exclusion), U937; type: cell-based; conditions: each leukemic cell line incl. U937, tritoqualine 10^-5-10^-8 M, 72 hr
Protocol: as §1, §2, §3

[4] = target: histamine H4 (Homo sapiens, UniProt Q9H3N8); test: Histamine H4 agonist activity
[5] = system: Bcr-Abl tyrosine kinase; conditions: inhibiting activity of the Bcr-Abl tyrosine kinase and proliferation, versus imatinib; cited from earlier work

histamine H4 activity (in words) [4]	Compound	inhibition of proliferation and viability (maximum effect) [1]	inhibition of proliferation and viability [2]	inhibition of proliferation and viability (in words) [3]	potency relative to imatinib [5]
histamine H4 agonist	CCOc1c(N)c2c(c(OCC)c1OCC)C(C1c3c(cc4c(c3OC)OCO4)CCN1C)OC2=O (centres unmarked) [tritoqualine, 7-Amino-4,5,6-triethoxy-3-(5,6,7,8-tetrahydro-4-methoxy-6-methyl-1,3-dioxolo[4,5-g]isoquinolin-5-yl) phthalide]	about 85%	60%	dose-dependently inhibited proliferation and viability	
	Cc1cn(-c2cc(NC(=O)c3ccc(C)c(Nc4nccc(-c5cccnc5)n4)c3)cc(C(F)(F)F)c2)cn1 [Nilotinib]				10-30 fold
